Assay results: patent US20240239804A1, “FUROINDAZOLE DERIVATIVES AS ANTAGONISTS OR INHIBITORS OF GPR84” (Bayer Aktiengesellschaft, priority 2021, published 2024)

target: T1, human GPR84 receptor (Homo sapiens, UniProt Q9NQS5); assay: cAMP HTRF assay for identification of cellular GPR84 antagonists; assay type: cell-based; conditions: CHO-K1 cells stably expressing human GPR84; Forskolin plus agonist 6-OAU; cAMP HTRF readout; average or median values
T1 construct: frozen aliquots prepared by acCELLerate; host or cells: CHO-K1
Procedure, shortened: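 CHO-K1 cells stably expressing human GPR84, preincubated with compound 30 min at room temperature, then stimulated 30 min with 6-OAU (EC80) plus forskolin (EC90). cAMP measured by HTRF 665/620 nm ratio after 60 min lysis; 11 concentrations from 20 μM to 0.07 nM in duplicate, IC50 by 4-parameter fit.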

T1 sequence (Q9NQS5 whole entry): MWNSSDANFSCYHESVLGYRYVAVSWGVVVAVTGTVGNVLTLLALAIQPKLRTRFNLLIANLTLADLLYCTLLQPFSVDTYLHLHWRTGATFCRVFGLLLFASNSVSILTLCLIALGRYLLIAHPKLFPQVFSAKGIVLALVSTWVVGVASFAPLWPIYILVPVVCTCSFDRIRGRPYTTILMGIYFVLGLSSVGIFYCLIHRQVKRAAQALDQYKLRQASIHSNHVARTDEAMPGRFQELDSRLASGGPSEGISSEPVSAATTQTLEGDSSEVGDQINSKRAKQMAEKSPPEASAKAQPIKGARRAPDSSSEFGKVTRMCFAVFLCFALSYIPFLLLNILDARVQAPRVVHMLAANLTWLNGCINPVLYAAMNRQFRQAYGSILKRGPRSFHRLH

SMILES	IC50 [µM]
Cc1c(C(=O)N2CC3CC3C2)oc2c1-c1nn(Cc3ccc(Cl)cc3)cc1CC2 (centres unmarked) [Example 68, (3-azabicyclo[3.1.0]hexan-3-yl){2-[(4-chlorophenyl)methyl]-8-methyl-4,5-dihydro-2H-furo[2,3-g]indazol-7-yl}methanone]	7.97
Cc1c(C(=O)N(C)Cc2cccnc2)oc2c1-c1nn(Cc3ccc(Cl)cc3)cc1CC2 [Example 69, 2-[(4-chlorophenyl)methyl]-N,8-dimethyl-N-[(pyridin-3-yl)methyl]-4,5-dihydro-2H-furo[2,3-g]indazole-7-carboxamide]	9.4
Cc1c(C(=O)NCCC#N)oc2c1-c1nn(Cc3ccc(Cl)cc3)cc1CC2 [Example 70, 2-[(4-chlorophenyl)methyl]-N-(2-cyanoethyl)-8-methyl-4,5-dihydro-2H-furo[2,3-g]indazole-7-carboxamide]	9.5
Cc1c(C(=O)N2CCC(O)CC2)oc2c1-c1nn(Cc3ccc(Cl)cc3)cc1CC2 [Example 71, {2-[(4-chlorophenyl)methyl]-8-methyl-4,5-dihydro-2H-furo[2,3-g]indazol-7-yl}(4-hydroxypiperidin-1-yl)methanone]	9.57
Cc1c(C(=O)N(C)Cc2ccco2)oc2c1-c1nn(Cc3ccc(Cl)cc3)cc1CC2 [Example 72, 2-[(4-chlorophenyl)methyl]-N-[(furan-2-yl)methyl]-N,8-dimethyl-4,5-dihydro-2H-furo[2,3-g]indazole-7-carboxamide]	9.96
Cc1c(C(=O)N(C)Cc2ccn(C)n2)oc2c1-c1nn(Cc3ccc(Cl)cc3)cc1CC2 [Example 73, 2-[(4-chlorophenyl)methyl]-N,8-dimethyl-N-[(1-methyl-1H-pyrazol-3-yl)methyl]-4,5-dihydro-2H-furo[2,3-g]indazole-7-carboxamide]	10.3
Cc1c(C(=O)N(C)Cc2ncc[nH]2)oc2c1-c1nn(Cc3ccc(Cl)cc3)cc1CC2 [Example 74, 2-[(4-chlorophenyl)methyl]-N-[(1H-imidazol-2-yl)methyl]-N,8-dimethyl-4,5-dihydro-2H-furo[2,3-g]indazole-7-carboxamide]	10.8
Cc1c(C(=O)N2CC(C)OC(C)C2)oc2c1-c1nn(Cc3ccc(Cl)cc3)cc1CC2 (centres unmarked) [Example 75, {2-[(4-chlorophenyl)methyl]-8-methyl-4,5-dihydro-2H-furo[2,3-g]indazol-7-yl}(2,6-dimethylmorpholin-4-yl)methanone]	12.3
Cc1c(C(=O)N(C)Cc2cnn(C)c2)oc2c1-c1nn(Cc3ccc(Cl)cc3)cc1CC2 [Example 76, 2-[(4-chlorophenyl)methyl]-N,8-dimethyl-N-[(1-methyl-1H-pyrazol-4-yl)methyl]-4,5-dihydro-2H-furo[2,3-g]indazole-7-carboxamide]	13
Cc1c(C(=O)NC2CCOCC2)oc2c1-c1nn(Cc3ccc(Cl)cc3)cc1CC2 [Example 77, 2-(4-chlorobenzyl)-8-methyl-N-(tetrahydro-2H-pyran-4-yl)-4,5-dihydro-2H-furo[2,3-g]indazole-7-carboxamide]	13.8
Cc1c(C(=O)NCc2ncc[nH]2)oc2c1-c1nn(Cc3ccc(Cl)cc3)cc1CC2 [Example 78, 2-[(4-chlorophenyl)methyl]-N-[(1H-imidazol-2-yl)methyl]-8-methyl-4,5-dihydro-2H-furo[2,3-g]indazole-7-carboxamide]	14.3
Cc1c(C(=O)N2CCC(CO)CC2)oc2c1-c1nn(Cc3ccc(Cl)cc3)cc1CC2 [Example 79, {2-[(4-chlorophenyl)methyl]-8-methyl-4,5-dihydro-2H-furo[2,3-g]indazol-7-yl}[4-(hydroxymethyl)piperidin-1-yl]methanone]	15.5
COCCN(C)C(=O)c1oc2c(c1C)-c1nn(Cc3ccc(Cl)cc3)cc1CC2 [Example 80, 2-[(4-chlorophenyl)methyl]-N-(2-methoxyethyl)-N,8-dimethyl-4,5-dihydro-2H-furo[2,3-g]indazole-7-carboxamide]	15.9
Cc1c(C(=O)NC2CCC(=O)NC2)oc2c1-c1nn(Cc3ccc(Cl)cc3)cc1CC2 (centres unmarked) [Example 81, 2-[(4-chlorophenyl)methyl]-8-methyl-N-(6-oxopiperidin-3-yl)-4,5-dihydro-2H-furo[2,3-g]indazole-7-carboxamide]	16.1
Cc1c(C(=O)N2CCC[C@@H]2C(N)=O)oc2c1-c1nn(Cc3ccc(Cl)cc3)cc1CC2 [Example 82, 1-{2-[(4-chlorophenyl)methyl]-8-methyl-4,5-dihydro-2H-furo[2,3-g]indazole-7-carbonyl}-D-prolinamide]	16.4
Cc1c(C(=O)N2CCC(C(N)=O)CC2)oc2c1-c1nn(Cc3ccc(Cl)cc3)cc1CC2 [Example 83, 1-{2-[(4-chlorophenyl)methyl]-8-methyl-4,5-dihydro-2H-furo[2,3-g]indazole-7-carbonyl}piperidine-4-carboxamide]	16.4
Cc1c(C(=O)N(C)Cc2ccnn2C)oc2c1-c1nn(Cc3ccc(Cl)cc3)cc1CC2 [Example 84, 2-[(4-chlorophenyl)methyl]-N,8-dimethyl-N-[(1-methyl-1H-pyrazol-5-yl)methyl]-4,5-dihydro-2H-furo[2,3-g]indazole-7-carboxamide]	16.4
Cc1c(C(=O)N(C)CCO)oc2c1-c1nn(Cc3ccc(Cl)cc3)cc1CC2 [Example 85, 2-[(4-chlorophenyl)methyl]-N-(2-hydroxyethyl)-N,8-dimethyl-4,5-dihydro-2H-furo[2,3-g]indazole-7-carboxamide]	17
Cc1c(C(=O)NC(C)(C)C#N)oc2c1-c1nn(Cc3ccc(Cl)cc3)cc1CC2 [Example 86, 2-[(4-chlorophenyl)methyl]-N-(2-cyanopropan-2-yl)-8-methyl-4,5-dihydro-2H-furo[2,3-g]indazole-7-carboxamide]	17.1
Cc1c(C(=O)N2CCCCC2)oc2c1-c1nn(Cc3ccc(Cl)cc3)cc1CC2 [Example 87]	17.1
Cc1c(C(=O)N2CCCC(C(N)=O)C2)oc2c1-c1nn(Cc3ccc(Cl)cc3)cc1CC2 (centres unmarked) [Example 88, 1-{2-[(4-chlorophenyl)methyl]-8-methyl-4,5-dihydro-2H-furo[2,3-g]indazole-7-carbonyl}piperidine-3-carboxamide]	17.3
Cc1c(C(=O)N(C)Cc2ccccn2)oc2c1-c1nn(Cc3ccc(Cl)cc3)cc1CC2 [Example 89, 2-[(4-chlorophenyl)methyl]-N,8-dimethyl-N-[(pyridin-2-yl)methyl]-4,5-dihydro-2H-furo[2,3-g]indazole-7-carboxamide]	17.4
Cc1c(C(=O)N2CCS(=O)(=O)CC2)oc2c1-c1nn(Cc3ccc(Cl)cc3)cc1CC2 [Example 90]	18.9
Cc1c(C(=O)N2CCC[C@H]2C(N)=O)oc2c1-c1nn(Cc3ccc(Cl)cc3)cc1CC2 [Example 91, 1-{2-[(4-chlorophenyl)methyl]-8-methyl-4,5-dihydro-2H-furo[2,3-g]indazole-7-carbonyl}-L-prolinamide]	≥ 20
Cc1c(C(=O)NCCN2CCN(C)CC2)oc2c1-c1nn(Cc3ccc(F)cc3Cl)cc1CC2 [Example 93]	0.82
Cc1c(C(=O)NCc2ccon2)oc2c1-c1nn(Cc3ccc(F)cc3Cl)cc1CC2 [Example 94]	0.28
